Here are results for 29 molecules from US10479784B2, “Substituted pyrazin-2-amines as inhibitors of ATR kinase” (Vertex Pharmaceuticals Incorporated, priority 2008, dated 2019).

A value given as a limit tells only on which side of the number the result lay.

This test concerns the target full-length ATR (Homo sapiens (Human), UniProt Q13535). The test is described as follows: ATR Inhibition Assay (radioactive-phosphate incorporation). In kind it is biochemical. Conditions: read-out: ATR Ki. In outline:
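Full-length human ATR (5 nM) was assayed at 25 °C in 50 mM Tris/HCl pH 7.5, 10 mM MgCl2, 1 mM DTT, with 10 μM [γ-33P]ATP and 800 μM peptide, after 10-min compound preincubation. Reactions were stopped after 24 h, captured on phosphocellulose and counted; Ki(app) came from non-linear regression of initial rates.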

One may read the Ki as a measure of affinity in units of concentration, obtained from inhibition or displacement.

full-length ATR, sequence (Q13535 whole entry): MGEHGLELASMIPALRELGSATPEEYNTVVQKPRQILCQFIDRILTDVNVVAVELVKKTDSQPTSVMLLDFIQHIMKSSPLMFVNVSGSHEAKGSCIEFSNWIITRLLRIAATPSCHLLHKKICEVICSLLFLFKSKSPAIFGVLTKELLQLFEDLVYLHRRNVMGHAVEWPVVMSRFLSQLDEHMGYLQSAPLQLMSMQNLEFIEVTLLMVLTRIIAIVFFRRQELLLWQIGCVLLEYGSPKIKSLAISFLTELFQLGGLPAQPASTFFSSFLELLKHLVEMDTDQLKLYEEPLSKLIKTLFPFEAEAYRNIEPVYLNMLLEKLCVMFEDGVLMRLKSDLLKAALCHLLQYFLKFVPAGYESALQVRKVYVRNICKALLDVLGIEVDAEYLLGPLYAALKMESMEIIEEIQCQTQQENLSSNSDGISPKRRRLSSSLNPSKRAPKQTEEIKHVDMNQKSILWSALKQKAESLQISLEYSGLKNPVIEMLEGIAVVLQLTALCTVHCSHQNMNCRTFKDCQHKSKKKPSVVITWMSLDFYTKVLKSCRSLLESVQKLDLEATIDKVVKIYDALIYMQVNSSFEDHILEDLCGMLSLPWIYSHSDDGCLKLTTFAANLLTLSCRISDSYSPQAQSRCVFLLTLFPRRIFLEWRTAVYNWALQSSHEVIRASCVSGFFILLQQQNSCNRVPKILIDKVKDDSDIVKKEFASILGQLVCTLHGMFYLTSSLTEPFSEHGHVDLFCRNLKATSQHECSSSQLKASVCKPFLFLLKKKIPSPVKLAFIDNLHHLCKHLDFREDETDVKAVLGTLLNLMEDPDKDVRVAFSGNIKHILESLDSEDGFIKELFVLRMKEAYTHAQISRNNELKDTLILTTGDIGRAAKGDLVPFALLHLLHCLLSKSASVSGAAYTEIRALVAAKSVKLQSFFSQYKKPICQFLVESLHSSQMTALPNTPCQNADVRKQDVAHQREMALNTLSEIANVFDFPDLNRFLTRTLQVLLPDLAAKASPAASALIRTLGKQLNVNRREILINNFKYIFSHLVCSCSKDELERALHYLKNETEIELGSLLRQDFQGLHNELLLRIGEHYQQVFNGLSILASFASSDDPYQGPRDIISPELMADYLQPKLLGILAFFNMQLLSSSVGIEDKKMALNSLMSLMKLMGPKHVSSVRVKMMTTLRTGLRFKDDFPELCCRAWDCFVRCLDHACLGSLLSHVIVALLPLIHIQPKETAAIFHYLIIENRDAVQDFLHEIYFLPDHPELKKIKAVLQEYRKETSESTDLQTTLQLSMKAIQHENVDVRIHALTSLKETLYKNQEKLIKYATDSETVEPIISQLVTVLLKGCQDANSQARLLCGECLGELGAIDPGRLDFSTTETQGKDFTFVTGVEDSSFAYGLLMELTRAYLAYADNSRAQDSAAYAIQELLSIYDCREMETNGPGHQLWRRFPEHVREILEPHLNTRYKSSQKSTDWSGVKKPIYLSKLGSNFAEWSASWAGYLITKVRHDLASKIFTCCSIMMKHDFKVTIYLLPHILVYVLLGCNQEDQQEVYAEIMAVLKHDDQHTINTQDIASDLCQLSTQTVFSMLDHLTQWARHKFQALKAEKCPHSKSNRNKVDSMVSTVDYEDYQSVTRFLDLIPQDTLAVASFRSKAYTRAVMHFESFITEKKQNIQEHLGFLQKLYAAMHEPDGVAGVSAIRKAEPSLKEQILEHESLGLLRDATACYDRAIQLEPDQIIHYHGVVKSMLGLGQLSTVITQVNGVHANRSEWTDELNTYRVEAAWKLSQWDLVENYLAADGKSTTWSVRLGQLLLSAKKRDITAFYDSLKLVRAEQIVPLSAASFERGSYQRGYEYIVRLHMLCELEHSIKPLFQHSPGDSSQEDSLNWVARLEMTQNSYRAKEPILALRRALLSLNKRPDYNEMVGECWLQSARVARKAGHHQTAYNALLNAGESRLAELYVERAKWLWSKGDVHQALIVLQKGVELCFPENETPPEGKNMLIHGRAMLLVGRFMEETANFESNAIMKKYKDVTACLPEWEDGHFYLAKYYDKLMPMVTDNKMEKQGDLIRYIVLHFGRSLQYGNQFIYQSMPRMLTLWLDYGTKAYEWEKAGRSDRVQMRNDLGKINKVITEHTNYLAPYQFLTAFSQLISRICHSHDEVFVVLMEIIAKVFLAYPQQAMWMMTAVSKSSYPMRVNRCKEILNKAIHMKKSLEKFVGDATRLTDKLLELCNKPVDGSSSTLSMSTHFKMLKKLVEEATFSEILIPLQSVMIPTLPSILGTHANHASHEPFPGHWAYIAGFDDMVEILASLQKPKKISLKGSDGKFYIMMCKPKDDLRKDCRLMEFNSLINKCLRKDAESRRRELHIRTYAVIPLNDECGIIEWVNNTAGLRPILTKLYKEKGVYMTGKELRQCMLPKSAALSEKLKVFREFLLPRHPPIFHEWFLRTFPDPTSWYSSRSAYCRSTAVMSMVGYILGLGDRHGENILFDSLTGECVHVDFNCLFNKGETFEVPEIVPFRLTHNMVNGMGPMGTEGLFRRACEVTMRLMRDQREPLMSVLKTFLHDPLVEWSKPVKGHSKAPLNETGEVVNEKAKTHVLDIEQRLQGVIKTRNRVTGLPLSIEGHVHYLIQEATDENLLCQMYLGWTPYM

For the molecule `Nc1ncc(-c2ccncc2)nc1-c1nnc(-c2cccs2)o1` [IA-141, 5-(4-pyridyl)-3-[5-(2-thienyl)-1,3,4-oxadiazol-2-yl]pyrazin-2-amine], the Ki was at most 10 nM.

On to `COc1ccccc1NC(=O)c1nc(-c2ccco2)cnc1N` [Compound I-30, 3-amino-6-(furan-2-yl)-N-(2-methoxyphenyl)pyrazine-2-carboxamide], for which the Ki lay in the range of 10 to 100 nM.

On to `COc1cnccc1-c1cnc(N)c(-c2nnc(-c3ccccc3)o2)n1` [IA-86, 5-(3-methoxy-4-pyridyl)-3-(5-phenyl-1,3,4-oxadiazol-2-yl)pyrazin-2-amine], for which the Ki was 100 to 5000 nM.

Take `Nc1ncc(-c2ccc(S(=O)(=O)C3CCOC3)cc2)nc1-c1nnc(-c2ccccc2F)o1` (centres unmarked) [IA-349, 3-[5-(2-fluorophenyl)-1,3,4-oxadiazol-2-yl]-5-(4-tetrahydrofuran-3-ylsulfonylphenyl)pyrazin-2-amine]: the inhibitory constant (Ki) was at most 10 nM.

Take `CCc1cc(-c2cnc(N)c(-c3nnc(-c4ccc(CNC)cc4)o3)n2)ccc1S(=O)(=O)C(C)C` [IA-326, 5-(3-ethyl-4-isopropylsulfonyl-phenyl)-3-[5-[4-(methylaminomethyl)phenyl]-1,3,4-oxadiazol-2-yl]pyrazin-2-amine]: the Ki is at most 10 nM.

In the case of `COCCN(C)C(=O)c1ccc(-c2cnc(N)c(-c3nnc(-c4ccccc4)o3)n2)cc1` [IA-14], the Ki was at most 10 nM.

For `CN(C)C(=O)c1ccc(-c2cnc(N)c(-c3nnc(NC4CCCCC4)o3)n2)cc1` [IA-163, 4-[5-amino-6-[5-(cyclohexylamino)-1,3,4-oxadiazol-2-yl]pyrazin-2-yl]-N,N-dimethyl-benzamide], the Ki lay within 100 to 5000 nM.

On to `CN(C)C(=O)c1ccc(-c2cnc(N)c(-c3nnc(-c4ccc(CN)cc4)o3)n2)cc1` [IA-234, 4-[5-amino-6-[5-[4-(aminomethyl)phenyl]-1,3,4-oxadiazol-2-yl]pyrazin-2-yl]-N,N-dimethyl-benzamide], for which the Ki is at most 10 nM.

Consider `COc1cccc(-c2nnc(-c3nc(-c4ccc(C(=O)N(C)C)cc4)cnc3N)o2)c1` [IA-195, 4-[5-amino-6-[5-(3-methoxyphenyl)-1,3,4-oxadiazol-2-yl]pyrazin-2-yl]-N,N-dimethyl-benzamide], for which the inhibition constant Ki was 10 to 100 nM.

In the case of `Nc1ncc(-c2ccc(F)c(C(=O)N3CCOCC3)c2)nc1-c1nc2ccccc2[nH]1` [Compound I-131, (5-(5-amino-6-(1H-benzo[d]imidazol-2-yl)pyrazin-2-yl)-2-fluorophenyl) (morpholino)methanone], the Ki was 10 to 100 nM.

Regarding `CC(C)S(=O)(=O)c1ccc(-c2cnc(N)c(-c3nnc(CCCN)o3)n2)cc1` [IA-91, 3-[5-(3-aminopropyl)-1,3,4-oxadiazol-2-yl]-5-(4-isopropylsulfonylphenyl)pyrazin-2-amine], the inhibition constant Ki lay within 100 to 5000 nM.

With `CN(C)C(=O)c1ccc(-c2cnc(N)c(-c3nc4ccccc4[nH]3)n2)cc1` [Compound I-124, 4-(5-amino-6-(1H-benzo[d]imidazol-2-yl)pyrazin-2-yl)-N,N-dimethylbenzamide], the Ki was in the range of 10 to 100 nM.

Consider `COc1ccc(-c2cnc(N)c(-c3nnc(-c4ccccc4)o3)n2)cn1` [IA-117, 5-(6-methoxy-3-pyridyl)-3-(5-phenyl-1,3,4-oxadiazol-2-yl)pyrazin-2-amine], for which the Ki lay in the range of 100 to 5000 nM.

Regarding `COC(=O)c1ccccc1-c1cnc(N)c(-c2nnc(-c3ccccc3)o2)n1` [IA-105, methyl 2-[5-amino-6-(5-phenyl-1,3,4-oxadiazol-2-yl)pyrazin-2-yl]benzoate], the inhibition constant Ki was in the range of 100 to 5000 nM.

`Nc1ncc(-c2ccc(S(=O)(=O)N3CCCC3)cc2)nc1-c1nc2ccccc2[nH]1` [Compound I-134, 3-(1H-benzo[d]imidazol-2-yl)-5-(4-(pyrrolidin-1-ylsulfonyl)phenyl) pyrazin-2-amine]: the Ki was at most 10 nM.

Consider `CC(C)S(=O)(=O)c1ccc(-c2cnc(N)c(-c3nnc(-c4ccc(CNC[C@@H](C)O)cc4F)o3)n2)cc1` [IA-341, (R)-1-(4-(5-(3-amino-6-(4-(isopropylsulfonyl)phenyl)pyrazin-2-yl)-1,3,4-oxadiazol-2-yl)-3-fluorobenzylamino)propan-2-ol], for which the Ki is at most 10 nM.

As to `COc1ccccc1NC(=O)c1nc(-c2ccc3[nH]ccc3c2)cnc1N` [Compound I-29, 3-amino-6-(1H-indol-5-yl)-N-(2-methoxyphenyl)pyrazine-2-carboxamide], the Ki is 10 to 100 nM.

Take `CC(C)NCc1ccc(-c2cc(-c3nc(-c4ccc(S(=O)(=O)C(C)C)cc4)cnc3N)on2)cc1` [IIA-8, 3-[3-[4-[(isopropylamino)methyl]phenyl]isoxazol-5-yl]-5-(4-isopropylsulfonylphenyl)pyrazin-2-amine]: the Ki was at most 10 nM.

Take `CNCc1ccc(-c2nnc(-c3nc(-c4ccc(S(=O)(=O)C(C)C)c(F)c4)cnc3N)o2)c(F)c1` [IA-321, 5-(3-fluoro-4-isopropylsulfonyl-phenyl)-3-[5-[2-fluoro-4-(methylaminomethyl)phenyl]-1,3,4-oxadiazol-2-yl]pyrazin-2-amine]: the Ki was at most 10 nM.

As for `CNCc1cccc(NC(=O)c2nc(-c3ccc(S(=O)(=O)C(C)C)cc3)cnc2N)c1` [VII-12], the Ki is at most 10 nM.

On to `CN(C)C(=O)c1ccc(-c2cnc(N)c(-c3nnc(-c4ccc(F)cc4)o3)n2)cc1` [IA-36], for which the Ki is 10 to 100 nM.

On to `CS(=O)(=O)c1ccc(-c2cnc(N)c(-c3nc4ccncc4[nH]3)n2)cc1` [Compound I-120, 3-(3H-imidazo[4,5-c]pyridin-2-yl)-5-(4-(methylsulfonyl)phenyl) pyrazin-2-amine], for which the Ki lay in the range of 10 to 100 nM.

For `CN(C)Cc1ccccc1-c1cnc(N)c(-c2nnc(-c3ccccc3)o2)n1` [IA-118, 5-(2-((dimethylamino)methyl)phenyl)-3-(5-phenyl-1,3,4-oxadiazol-2-yl)pyrazin-2-amine], the Ki fell in the range of 100 to 5000 nM.

As to `CN(C)C(=O)c1ccc(-c2cnc(N)c(-c3nnc(-c4ccccc4)o3)n2)c(C(F)F)c1` [IA-126, 4-[5-amino-6-(5-phenyl-1,3,4-oxadiazol-2-yl)pyrazin-2-yl]-3-(difluoromethyl)-N,N-dimethyl-benzamide], the Ki is at most 10 nM.

Take `CC(C)S(=O)(=O)c1ccc(-c2cnc(N)c(-c3nnc(N4CCCC(CN)C4)o3)n2)cc1` (centres unmarked) [IA-227, 3-[5-[3-(aminomethyl)-1-piperidyl]-1,3,4-oxadiazol-2-yl]-5-(4-isopropylsulfonylphenyl)pyrazin-2-amine]: the Ki was 100 to 5000 nM.

With `CN(C)C(=O)c1ccc(-c2cnc(N)c(-c3nnc(Nc4cccnc4)o3)n2)cc1` [IA-44], the Ki was in the range of 10 to 100 nM.

`CC(C)S(=O)(=O)c1ccc(-c2cnc(N)c(-c3nnc(C(=O)N4CCC(N)C4)o3)n2)cc1` (centres unmarked) [IA-133, [5-[3-amino-6-(4-isopropylsulfonylphenyl)pyrazin-2-yl]-1,3,4-oxadiazol-2-yl]-(3-aminopyrrolidin-1-yl)methanone]: the Ki was in the range of 100 to 5000 nM.

Regarding `Nc1ncc(-c2cccc(OC(F)(F)F)c2)nc1-c1nnc(-c2ccccc2)o1` [IA-150, 3-(5-phenyl-1,3,4-oxadiazol-2-yl)-5-[3-(trifluoromethoxy)phenyl]pyrazin-2-amine], the Ki lay within 100 to 5000 nM.

Turning to `CCCCOC(=O)c1nnc(-c2nc(-c3ccc(S(=O)(=O)C(C)C)cc3)cnc2N)o1` [IA-113, butyl 5-[3-amino-6-(4-isopropylsulfonylphenyl)pyrazin-2-yl]-1,3,4-oxadiazole-2-carboxylate], the Ki lay within 10 to 100 nM.
